Measured values taken from US20120321896A1, “RASAGILINE MESYLATE HAVING LARGE PARTICLE SIZE AND A PROCESS FOR PREPARATION THEREOF” (priority 2010, published 2012).
Structures can show the parent of a compound that is named as a salt.

Conditions: volume distribution; average of three measurements; recrystallised from isopropyl alcohol, gradual cooling in around 15 hours without stirring, no milling
Excerpt: Measurement and characterization of particle size distributions is known in the art. It is possible to compare samples of particulate rasagiline mesylate on the basis of individual points on a cumulative particle size distribution curve. The measurements are represented as d(0.X)-Y (where X and Y are Arabic numerals), each “d” describing an individual point on a cumulative PSD curve. The number “X” represents the percentage (number, volume, or weight) of particles in the population having a nominal size up to and including “Y”. Thus, D90 or d(0.9) of greater than 255 μm is a characteristic of a PSD in which 90% (number, volume, or weight) of the particles in a population have a nominal size of about 255 μm or more (at least some particles having a nominal dimension of 255 μm) and so forth. When PSD is determined by the well-know laser-diffraction method described herein, the D90 measurement depicts a volume average.
Particle Size Distribution (PSD) is determined by laser diffraction in Malvern master Sizer 2000 equipment or its equivalent:
Spread sufficient powder in the dry powder holder of sampler holding unit and close it by the sliding cover. Operate the instrument for particle size analysis.
Report the average of three measurements.

SMILES	Particle size data (D90)
C#CCN[C@@H]1CCc2ccccc21 [Example-1, Rasagiline mesylate]	292.2 μm
C#CCN[C@@H]1CCc2ccccc21 [Example-2, Rasagiline mesylate]	337.1 μm
